Measured values taken from ChEMBL document CHEMBL1158910, “The gastric cytoprotective effect of several sesquiterpene lactones” (J Nat Prod, 1990).
Activity calls are given as the source filed them. The rule behind the calls is not given here.

Tests used:
Rattus norvegicus [1] = assay: Antiulcerogenic activity in Wistar rat assessed as cytoprotection against ethanol-induced gastric lesions at 40 mg/kg administered 60 mins before ethanol challenge; format: functional, organism-based; design: dose 40 mg/kg; details: Stomach
Rattus norvegicus [2] = assay: Antiulcerogenic activity in Wistar rat assessed as cytoprotection against ethanol-induced gastric lesions administered 60 mins before ethanol challenge; format: functional, organism-based; details: Stomach

| Structure (SMILES) | Activity (Rattus norvegicus [1]) | Activity (Rattus norvegicus [2]) |
| --- | --- | --- |
| C=C1C(=O)O[C@@H]2[C@H]3C(=C)[C@@H](O)C[C@H]3C(=C)C[C@H](OC(=O)/C(C)=C\C)[C@@H]12 | Active |  |
| C=C1C(=O)O[C@@H]2C[C@@H](C)[C@@H]3C=CC(=O)[C@@]3(C)[C@@H](O)[C@H]12 | Active |  |
| CC1=CC(=O)C2=C(C)CC[C@@H]3[C@H](OC(=O)[C@H]3C)[C@@H]12 | inactive |  |
| C=C1C(=O)O[C@@H]2[C@H]1CC[C@H](C)[C@@]1(O)C=CC(=O)[C@@]21C | Active | Dose-dependent effect |
| C=C1C(=O)O[C@H]2C[C@@H](C)[C@@H]3C=CC(=O)[C@@]3(C)[C@H](O)[C@H]12 | Active |  |
| C=C1C(=O)O[C@H]2[C@H](O)[C@@H](C)[C@@H]3[C@@H](OC(=O)/C(C)=C\C)C[C@H](O)[C@@]3(C)[C@H](OC(C)=O)[C@H]12 | Active |  |
| C=C1C(=O)O[C@@H]2[C@H]3C(C)=CC(=O)C3=C(C)CC[C@@H]12 | Active | Dose-dependent effect |
| C=C1C(=O)O[C@H]2[C@H]1CCC(C)=C1C[C@H]3O[C@@]3(C)[C@@H]12 | Active |  |
